Results from US10308634B2, “Substituted indazoles, methods for the production thereof, pharmaceutical preparations that contain said new substituted indazoles, and use of said new substituted indazoles to produce drugs” (BAYER PHARMA AKTIENGESELLSCHAFT, priority 2014, dated 2019).
Where two headings read alike, the source gives them in different places.

What was measured:
human IRAK4 = human IRAK4 (Homo sapiens (Human), UniProt Q9NWZ3); assay: IRAK4 kinase assay (IRAK4 TR-FRET assay); format: biochemical
Experimental: The IRAK4-inhibitory activity of the inventive substances was measured in the IRAK4 TR-FRET assay (TR-FRET=Time Resolved Fluorescence Resonance Energy Transfer) described hereinafter.
Recombinant fusion protein from N-terminal GST (glutathione S-transferase) and human IRAK4, expressed in baculovirus-infected insect cells (Hi5, BTI-TN-5B1-4, cell line purchased from Invitrogen, catalogue No. B855-02) and purified via affinity chromatography, was used as enzyme. The substrate used for the kinase reaction was the biotinylated peptide biotin-Ahx-[…] (C-terminus in amide form) which can be purchased, for example, from Biosyntan GmbH (Berlin-Buch).
50 nl of the respective solution were pipetted into a black low-volume 384-well microtitre plate (Greiner Bio-One, Frickenhausen, Germany), 2 μl of a solution of IRAK4 in assay buffer [50 mM HEPES pH 7.5, 5 mM MgCl2, 1.0 mM dithiothreitol, 30 μM activated sodium orthovanadate, 0.1% (w/v) of bovine gamma-globulin (BGG) 0.04% (v/v) nonidet-P40 (Sigma)] were added and the mixture was incubated for 15 min to allow prebinding of the substances to the enzyme prior to the kinase reaction. […] The concentration of the IRAK4 was adjusted to the respective activity of the enzyme and set such that the assay was carried out in the linear range. Typical concentrations were in the order of about 0.2 nM.
The resulting mixture was incubated at 22° C. for 1 h to allow formation of a complex of the biotinylated phosphorylated substrate and the detection reagents. The amount of the phosphorylated substrate was then evaluated by measuring the resonance energy transfer from europium chelate-labelled anti-mouse-IgG antibody to streptavidin-XL665. […] The IC50 values were calculated by a 4-parameter fit.

THP-1 cells = assay: TNF-α secretion in THP-1 cells (LPS-triggered, HTRF); format: cell-based; conditions: Homo sapiens, read-out: IC50 with respect to the secretion of TNF-α in THP-1 cells
Experimental: This test is suited to test substances for their ability to inhibit secretion of TNF-α (tumour necrosis factor alpha) in THP-1 cells (human monocytic acute leukaemia cell line). TNF-α is a cytokine involved in inflammatory processes. In this test, TNF-α secretion is triggered by incubation with bacterial lipopolysaccharide (LPS).
The cells were incubated at room temperature for 15 min. 2-2.5 μl of 0.1 μg/ml LPS (Sigma, Escherichia coli 055:B5, Cat. No. L5418) dissolved in cell culture medium (final concentration 0.05 μg/ml) were then dispensed into each well. As neutral control, cells were treated with 0.05 μg/ml LPS and 1% DMSO and, as inhibitor control, with 1% DMSO only.
The amount of TNF-α was determined using the TNF-alpha HTRF Detection Kit (Cisbio, Cat. No. 62TNFPEB/C). To this end, 2 μl of the detection solution in each case, consisting of anti-TNF-α-XL665 conjugate and anti-TNF-α-cryptate conjugate dissolved in the reconstitution buffer in accordance with the manufacturer's instructions, were added for the HTRF (Homogeneous Time-Resolved Fluorescence) test. After the addition, the mixture was incubated either at room temperature for 3 h or at 4° C. overnight.
The activity of the substances is expressed as the ratio between neutral and inhibitor control in percent. The IC50 values were calculated using a 4-parameter fit.

[1] = TR-FRET, 1 mM ATP, read-out: IC50 in the IRAK4 kinase assay

human IRAK4, sequence (Q9NWZ3 whole entry): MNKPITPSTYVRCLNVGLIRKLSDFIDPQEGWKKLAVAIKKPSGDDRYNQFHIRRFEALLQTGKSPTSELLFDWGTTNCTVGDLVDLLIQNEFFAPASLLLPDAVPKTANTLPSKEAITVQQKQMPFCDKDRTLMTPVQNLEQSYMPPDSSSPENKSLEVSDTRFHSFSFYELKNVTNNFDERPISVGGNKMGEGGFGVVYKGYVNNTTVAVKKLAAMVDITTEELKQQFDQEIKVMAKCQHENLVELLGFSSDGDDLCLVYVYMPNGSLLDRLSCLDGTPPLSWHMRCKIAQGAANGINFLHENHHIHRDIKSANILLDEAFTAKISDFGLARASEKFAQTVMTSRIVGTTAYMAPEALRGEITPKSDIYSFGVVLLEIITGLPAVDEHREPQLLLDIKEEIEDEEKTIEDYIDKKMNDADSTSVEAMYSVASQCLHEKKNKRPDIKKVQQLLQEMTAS

| SMILES | IC50 (human IRAK4; [1]) [nM] | IC50 (THP-1 cells; THP-1, 0.05 μg/ml LPS, 17 h) [nM] | IC50 (THP-1 cells; THP-1, 17 h) [nM] | IC50 (human IRAK4) [nM] |
| --- | --- | --- | --- | --- |
| COCCn1cc2cc(NC(=O)c3cccc(C(F)(F)F)n3)c(C(C)(C)O)cc2n1 [Example 1, N-[6-(2-Hydroxypropan-2-yl)-2-(2-methoxyethyl)-2H-indazol-5-yl]-6-(trifluoromethyl)pyridine-2-carboxamide] | 30.6 | 1000 |  |  |
| COCCCn1cc2cc(NC(=O)c3cccc(C(F)(F)F)n3)c(CO)cc2n1 [Example 4, N-[6-(Hydroxymethyl)-2-(3-methoxypropyl)-2H-indazol-5-yl]-6-(trifluoromethyl)pyridine-2-carboxamide] | 52.7 | 5600 |  |  |
| O=C(Nc1cc2cn(CCO)nc2cc1CO)c1cccc(C(F)(F)F)n1 [Example 7, N-[2-(2-Hydroxyethyl)-6-(hydroxymethyl)-2H-indazol-5-yl]-6-(trifluoromethyl)pyridine-2-carboxamide] | 867 | 16400 |  |  |
| CC(C)(O)CCn1cc2cc(NC(=O)c3cccc(C(F)F)n3)c(C(C)(C)O)cc2n1 [Example 13, 6-(Difluoromethyl)-N-[2-(3-hydroxy-3-methylbutyl)-6-(2-hydroxypropan-2-yl)-2H-indazol-5-yl]pyridine-2-carboxamide] | 1.3 |  | 100 |  |
| CC(C)(O)c1cc2nn(CCS(C)(=O)=O)cc2cc1NC(=O)c1cccc(C(F)F)n1 [Example 14, 6-(Difluoromethyl)-N-{6-(2-hydroxypropan-2-yl)-2-[2-(methylsulphonyl)ethyl]-2H-indazol-5-yl}pyridine-2-carboxamide] | 10.8 | 200 |  |  |
| CC(C)(O)c1cc2nn(CCCOC(F)(F)F)cc2cc1NC(=O)c1cccc(C(F)(F)F)n1 [Example 17, N-{6-(2-Hydroxypropan-2-yl)-2-[3-(trifluoromethoxy)propyl]-2H-indazol-5-yl}-6-(trifluoromethyl)pyridine-2-carboxamide] | 36 | 500 |  |  |
| CC(C)(O)c1cc2nn(CCCOCC(F)(F)F)cc2cc1NC(=O)c1cccc(C(F)(F)F)n1 [Example 18, N-{6-(2-Hydroxypropan-2-yl)-2-[3-(2,2,2-trifluoroethoxy)propyl]-2H-indazol-5-yl}-6-(trifluoromethyl)pyridine-2-carboxamide] | 47.5 | 300 |  |  |
| Cc1nc(C(=O)Nc2cc3cn(CCC(C)(C)O)nc3cc2C(C)(C)O)ccc1F [Example 19, 5-Fluoro-N-[2-(3-hydroxy-3-methylbutyl)-6-(2-hydroxypropan-2-yl)-2H-indazol-5-yl]-6-methylpyridine-2-carboxamide] | 8.9 |  | 100 |  |
| COCCn1cc2cc(NC(=O)c3cccc(C(F)(F)F)n3)c(C(=O)OC)cc2n1 [Intermediate 4-2, Methyl 2-(2-methoxyethyl)-5-({[6-(trifluoromethyl)pyridin-2-yl]carbonyl}amino)-2H-indazole-6-carboxylate] |  |  |  | 21.7 |
| COCCCn1cc2cc(NC(=O)c3cccc(C(F)(F)F)n3)c(C(=O)OC)cc2n1 [Intermediate 4-3, Methyl 2-(3-methoxypropyl)-5-({[6-(trifluoromethyl)pyridin-2-yl]carbonyl}amino)-2H-indazole-6-carboxylate] |  |  |  | 13 |
| COC(=O)c1cc2nn(CCC(C)(C)O)cc2cc1NC(=O)c1cccc(C(F)(F)F)n1 [Intermediate 4-4, Methyl 2-(3-hydroxy-3-methylbutyl)-5-({[6-(trifluoromethyl)pyridin-2-yl]carbonyl}amino)-2H-indazole-6-carboxylate] |  |  |  | 6.2 |

Further lines, with some results ahead:

| IC50 (human IRAK4; [1]) [nM] | IC50 (THP-1 cells; THP-1, 0.05 μg/ml LPS, 17 h) [nM] | SMILES | IC50 (THP-1 cells; THP-1, 17 h) [nM] | IC50 (human IRAK4) [nM] |
| --- | --- | --- | --- | --- |
|  | 15100 | COCCn1cc2cc(NC(=O)c3cccc(C(F)(F)F)n3)c(CO)cc2n1 [Example 2, N-[6-(Hydroxymethyl)-2-(2-methoxyethyl)-2H-indazol-5-yl]-6-(trifluoromethyl)pyridine-2-carboxamide] |  |  |
| 264 | 5400 | CC(C)(O)c1cc2nn(CCO)cc2cc1NC(=O)c1cccc(C(F)(F)F)n1 [Example 5, N-[2-(2-Hydroxyethyl)-6-(2-hydroxypropan-2-yl)-2H-indazol-5-yl]-6-(trifluoromethyl)pyridine-2-carboxamide] |  |  |
| 35.7 | 900 | CC(C)(O)c1cc2nn(CCCO)cc2cc1NC(=O)c1cccc(C(F)(F)F)n1 [Example 6, N-[6-(2-Hydroxypropan-2-yl)-2-(3-hydroxypropyl)-2H-indazol-5-yl]-6-(trifluoromethyl)pyridine-2-carboxamide] |  |  |
| 15 | 1000 | CC(C)(O)c1cc2nn(CC3COC3)cc2cc1NC(=O)c1cccc(C(F)(F)F)n1 [Example 8, N-[6-(2-Hydroxypropan-2-yl)-2-(oxetan-3-ylmethyl)-2H-indazol-5-yl]-6-(trifluoromethyl)pyridine-2-carboxamide] |  |  |
| 104 | 6500 | O=C(Nc1cc2cn(CC3COC3)nc2cc1CO)c1cccc(C(F)(F)F)n1 [Example 9, N-[6-(Hydroxymethyl)-2-(oxetan-3-ylmethyl)-2H-indazol-5-yl]-6-(trifluoromethyl)pyridine-2-carboxamide] |  |  |
| 18.5 | 1000 | CC(C)(O)c1cc2nn(CCCS(C)(=O)=O)cc2cc1NC(=O)c1cccc(C(F)(F)F)n1 [Example 10, N-{6-(2-Hydroxypropan-2-yl)-2-[3-(methylsulphonyl)propyl]-2H-indazol-5-yl}-6-(trifluoromethyl)pyridine-2-carboxamide] |  |  |
| 12.3 | 200 | CC(C)(O)c1cc2nn(CCCO)cc2cc1NC(=O)c1cccc(C(F)F)n1 [Example 15, 6-(Difluoromethyl)-N-[6-(2-hydroxypropan-2-yl)-2-(3-hydroxypropyl)-2H-indazol-5-yl]pyridine-2-carboxamide] |  |  |
| 21.5 | 200 | CC(C)(O)c1cc2nn(CCCC(F)(F)F)cc2cc1NC(=O)c1cccc(C(F)(F)F)n1 [Example 16, N-[6-(2-Hydroxypropan-2-yl)-2-(4,4,4-trifluorobutyl)-2H-indazol-5-yl]-6-(trifluoromethyl)pyridine-2-carboxamide] |  |  |
| 13.3 | 200 | Cc1cccc(C(=O)Nc2cc3cn(CCC(C)(C)O)nc3cc2C(C)(C)O)n1 [Example 20, N-[2-(3-Hydroxy-3-methylbutyl)-6-(2-hydroxypropan-2-yl)-2H-indazol-5-yl]-6-methylpyridine-2-carboxamide] |  |  |
| 117 | 1800 | CC(C)(O)c1cccc(C(=O)Nc2cc3cn(CCCC(F)(F)F)nc3cc2C(C)(C)O)n1 [Example 21, 6-(2-Hydroxypropan-2-yl)-N-[6-(2-hydroxypropan-2-yl)-2-(4,4,4-trifluorobutyl)-2H-indazol-5-yl]pyridine-2-carboxamide] |  |  |
| 3.7 |  | CC(C)(O)c1cc2nn(CCC3(O)CC3)cc2cc1NC(=O)c1cccc(C(F)(F)F)n1 [Example 22, N-{2-[2-(1-Hydroxycyclopropyl)ethyl]-6-(2-hydroxypropan-2-yl)-2H-indazol-5-yl}-6-(trifluoromethyl)pyridine-2-carboxamide] |  |  |
